Measured values as given in patent US20190225650A1, “PEPTIDOMIMETIC MACROCYCLES AND USE THEREOF IN REGULATING HIF1ALPHA” (AILERON THERAPEUTICS, INC., priority 2013, published 2019).
Bridge positions count the residues as written; N and C are the ends. Square brackets hold non-standard residues; d marks the D form. Peptide text beside a SMILES is read from it. R8 = C=CCCCCCC[C@@](C)(N)C(=O)O; S5 = C=CCCC[C@](C)(N)C(=O)O; Nle = CCCC[C@H](N)C(=O)O

Tests used:
HRE-bla ME-180 cells [1] = assay: Reporter gene assay (HRE-bla ME-180 HIF reporter, GeneBLAzer); type: cell-based, human; settings: for EC50: 24 hour normoxia
Outline: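 A FRET β-lactamase readout of HIF transcription was used. After compound treatment in 0.3% DMSO/media under normoxic conditions, 20 μl of 6× LiveBLAzer-FRET B/G (CCF4-AM) substrate was added. Plates sat 3 hr at room temperature in the dark and were read at 409 Ex/460Em and 409Ex/530Em on a Synergy 2. Inhibition was compared against DMSO vehicle controls, with chetomin as positive control.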

[2] = target: T1, flag-tagged HIF1α (AA 786-826) / His6-tagged p300 (AA 323-423) complex (Homo sapiens, UniProt Q09472); assay: HIF1α p300 displacement assay (TR FRET, +CHAPS); type: binding; settings: read-out: IC50 (nM) (HIF1α_p300 Displacement + CHAPS)
T1 construct: His6-tagged p300 (AA 323-423); made in house; host or cells: E. coli (pETDuet vector)
Outline: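 In this TR-FRET displacement format, peptides compete HIF1α C-terminal transactivation domain off p300-CH. They were preincubated 1 h at room temperature with 300 nM complex in HEPES pH 7.4/NaCl buffer with 7.5 mM CHAPS and 1 mM DTT. Anti-His-D2 (4 nM) and anti-Flag-K (0.5 μM) followed for 2 h, and a one-site fit of the fluorescence ratio gave IC50.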

HRE-bla ME-180 cells [3] = assay: Cell proliferation assay (viability, MTT, 1% FBS); type: cell-based, human
Outline: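 Viable cell number was measured with the CellTiter 96 (MTT) kit after compounds were applied for a 16 h normoxic (21% O2) pretreatment, followed by further normoxic or hypoxic (1% O2) culture. Cells: 2×10^4 ME-180 per well, Opti-MEM + 1% FBS, 0.5% DMSO vehicle.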

SMILES | 18 h Avg % max inhibition at top conc (HIF Rptr-24 hrs normoxia) (μM) (HRE-bla ME-180 cells [1]) | EC50 (HRE-bla ME-180 cells [1]) [µM] | IC50 [2] [nM] | Viability 1% FBS AVG (MTT V3-24 hr Normoxia) (μM) (HRE-bla ME-180 cells [3])
CC[C@H](C)[C@H](NC(=O)[C@H](Cc1ccccc1)NC(C)=O)C(=O)N[C@@H](CO)C(=O)N[C@@H](CCC(=O)O)C(=O)N[C@@H](CCC(=O)O)C(=O)N[C@H](C(=O)N[C@@H](CC(C)C)C(=O)N[C@@H](CCSC)C(=O)N[C@@]1(C)CCCC=CCCC[C@@](C)(C(=O)N[C@@H](CCSC)C(=O)N[C@@H](C)C(=O)N[C@@H](CC(C)C)C(N)=O)NC(=O)[C@H]([C@@H](C)CC)NC(=O)[C@H](C(C)C)NC(=O)[C@H](CC(C)C)NC1=O)C(C)C [SP-230] (Ac-FISEEVLM[S5]LVI[S5]MAL-NH2; staple 9-13) | + (<10: +) | > 30 | 400 to 700 | ++++ (≥30: ++++)
CC[C@H](C)[C@H](NC(=O)[C@H](C)NC(C)=O)C(=O)N[C@@H](CC(=O)O)C(=O)N[C@@H](CCC(=O)O)C(=O)N[C@@H](CCC(=O)O)C(=O)N[C@H](C(=O)N[C@@H](CC(C)C)C(=O)N[C@@H](CCSC)C(=O)N[C@@]1(C)CCCC=CCCC[C@@](C)(C(=O)N[C@@H](CCSC)C(=O)N[C@@H](C)C(=O)N[C@@H](CC(C)C)C(N)=O)NC(=O)[C@H]([C@@H](C)CC)NC(=O)[C@H](C(C)C)NC(=O)[C@H](CC(C)C)NC1=O)C(C)C [SP-217] (Ac-AIDEEVLM[S5]LVI[S5]MAL-NH2; staple 9-13) | +++ (≤25 but <50: +++) | > 30 | > 700 | ++++ (≥30: ++++)
CCCC[C@H](NC(=O)[C@H](CCC(=O)O)NC(=O)[C@]1(C)CCCC=CCCCCCC[C@@](C)(NC(=O)[C@H](CCC(=O)O)NC(=O)[C@H](CC(=O)O)NC(=O)[C@@H](NC(=O)[C@H](CC(N)=O)NC(=O)[C@@H](NC(=O)[C@]2(C)CCCC=CCCCCCC[C@@](C)(NC(=O)[C@H](CCC(=O)O)NC(=O)[C@H](C)NC(=O)[C@H](CCC(N)=O)NC(=O)[C@H](CC(C)C)NC(=O)[C@H](CC(C)C)NC(C)=O)C(=O)N[C@@H](CC(C)C)C(=O)N[C@@H](CC(C)C)C(=O)N[C@@H](CCCNC(=N)N)C(=O)N[C@@H](C)C(=O)N[C@@H](CC(C)C)C(=O)N[C@@H](CC(=O)O)C(=O)N2)C(C)C)[C@@H](C)CC)C(=O)N[C@@H](C(C)C)C(=O)N[C@@H](CC(C)C)C(=O)N[C@@H](CCCC)C(=O)N[C@@H](CO)C(=O)N[C@@H](CC(C)C)C(=O)N[C@@H](C(C)C)C(=O)N1)C(N)=O [SP-357] (Ac-LLQAE[R8]LLRALD[S5]VNIDE[R8]VL[Nle]SLV[S5]E[Nle]-NH2; staple 6-13, 19-26) | ++ (≤10 but <25: ++) | > 30 | ≤ 200 | ++++ (≥30: ++++)
CCCC[C@H](NC(=O)[C@]1(C)CCCC=CCCC[C@](C)(NC(=O)[C@H](C)NC(=O)[C@H](Cc2ccccc2)NC(=O)[C@@H](NC(=O)[C@H](CCC(=O)O)NC(=O)[C@H](CCC(=O)O)NC(=O)[C@H](CC(=O)O)NC(=O)[C@@H](NC(=O)[C@H](Cc2ccccc2)NC(C)=O)[C@@H](C)CC)C(C)C)C(=O)N[C@@H](CC(C)C)C(=O)N[C@@H](C(C)C)C(=O)N[C@@H]([C@@H](C)CC)C(=O)N1)C(=O)N[C@@H](C)C(=O)N[C@@H](CC(C)C)C(=O)N[C@@H](CC(C)C)C(N)=O [SP-246] (Ac-FIDEEVFA[S5]LVI[S5][Nle]ALL-NH2; staple 9-13) | + (<10: +) | > 30 | > 700 | ++++ (≥30: ++++)
CC[C@H](C)[C@H](NC(=O)[C@H](Cc1ccccc1)NC(C)=O)C(=O)N[C@@H](CC(=O)O)C(=O)N[C@@H](CCC(=O)O)C(=O)N[C@]1(C)CCCCCCC=CCCC[C@@](C)(C(=O)N[C@@H](CCC(=O)O)C(=O)N[C@@H](CCSC)C(=O)N[C@@H](C)C(=O)N[C@@H](CC(C)C)C(N)=O)NC(=O)[C@H](C(C)C)NC(=O)[C@H](CC(C)C)NC(=O)[C@H](CO)NC(=O)[C@H](CCSC)NC(=O)[C@H](CC(C)C)NC(=O)[C@H](C(C)C)NC1=O [SP-177] (Ac-FIDE[R8]VLMSLV[S5]EMAL-NH2; staple 5-12) | ++++ (≥50: ++++) | 5 to 15 | 400 to 700 | +++ (≤15 but <30: +++)
CCCC[C@H](NC(=O)[C@H](CC(C)C)NC(=O)[C@@H](NC(=O)[C@H](CCC(=O)O)NC(=O)[C@H](CCC(=O)O)NC(=O)[C@H](CC(=O)O)NC(=O)[C@@H](NC(=O)[C@H](Cc1ccccc1)NC(C)=O)[C@@H](C)CC)C(C)C)C(=O)N[C@@]1(C)CCCC=CCCC[C@@](C)(C(=O)N[C@@H](CCSC)C(=O)N[C@@H](C)C(=O)N[C@@H](CC(C)C)C(N)=O)NC(=O)[C@H]([C@@H](C)CC)NC(=O)[C@H](C(C)C)NC(=O)[C@H](CC(C)C)NC1=O [SP-224] (Ac-FIDEEVL[Nle][S5]LVI[S5]MAL-NH2; staple 9-13) | ++ (≤10 but <25: ++) | > 30 | 400 to 700 | ++++ (≥30: ++++)
CCCC[C@H](NC(=O)[C@H](C)NC(=O)[C@]1(C)CCCC=CCCCCCC[C@@](C)(NC(=O)[C@H](CCC(=O)O)NC(=O)[C@H](CC(=O)O)NC(=O)[C@@H](NC(=O)[C@H](Cc2ccccc2)NC(C)=O)[C@@H](C)CC)C(=O)N[C@@H](C(C)C)C(=O)N[C@@H](CC(C)C)C(=O)N[C@@H](CCCC)C(=O)N[C@@H](CO)C(=O)N[C@@H](CC(C)C)C(=O)N[C@@H](C(C)C)C(=O)N1)C(=O)N[C@@H](C)C(=O)N[C@@H](CC(C)C)C(=O)N[C@@H](CC(=O)O)C(=O)N[C@@H](C)C(=O)N[C@H](C(N)=O)[C@@H](C)CC [SP-191] (Ac-FIDE[R8]VL[Nle]SLV[S5]A[Nle]ALDAI-NH2; staple 5-12) | ++ (≤10 but <25: ++) | > 30 | 200 to 400 | ++++ (≥30: ++++)
CCCC[C@H](NC(=O)[C@H](C)NC(=O)[C@]1(C)CCCC=CCCCCCC[C@@](C)(NC(=O)[C@H](CCC(=O)O)NC(=O)[C@H](CC(=O)O)NC(=O)[C@@H](NC(=O)[C@H](CC(N)=O)NC(=O)[C@@H](NC(=O)[C@H](CCC(N)=O)NC(=O)[C@]2(C)CCCC=CCCC[C@](C)(NC(=O)[C@H](CC(C)C)NC(=O)[C@H](CCC(=O)O)NC(=O)[C@H](CCC(=O)O)NC(=O)CNC(=O)[C@H](CCC(N)=O)NC(=O)[C@H](CC(C)C)NC(=O)[C@H](CC(C)C)NC(C)=O)C(=O)N[C@@H](CCCNC(=N)N)C(=O)N[C@@H](C)C(=O)N[C@@H](CC(C)C)C(=O)N2)C(C)C)[C@@H](C)CC)C(=O)N[C@@H](C(C)C)C(=O)N[C@@H](CC(C)C)C(=O)N[C@@H](CCCC)C(=O)N[C@@H](CO)C(=O)N[C@@H](CC(C)C)C(=O)N[C@@H](C(C)C)C(=O)N1)C(N)=O [SP-363] (Ac-LLQGEEL[S5]RAL[S5]QVNIDE[R8]VL[Nle]SLV[S5]A[Nle]-NH2; staple 8-12, 19-26) | ++ (≤10 but <25: ++) | > 30 | > 700 | ++++ (≥30: ++++)
